{"source": "PubChem BioAssay AID1247", "about": "(Sanford-Burnham Center for Chemical Genomics, 2008)", "test_system": "CSM 14.1 cells, thapsigargin ER-stress death rescue, ATPlite 24 h", "experiment": "potency of ER stress death protectors, SAR follow-up, CSM14.1 cells, ATP luminescence, benzodiazepine series (AID 1247)", "note": "Active and inactive are the calls of the source.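 The calls were made as follows: active = EC50 below a set limit, with activity reproduced on retest from dry powder; inactive = the rest.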", "data": [{"smiles": "COc1ccc(C2CC(=O)C3=C(C2)Nc2ccccc2NC3c2ccc(C)cc2)cc1OC", "note": "(configuration not stated)", "values": [{"measurement": "EC50", "result": 28.1, "unit": "µM"}]}, {"smiles": "COc1ccc(C2CC(=O)C3=C(C2)Nc2ccccc2NC3c2cccc(C(F)(F)F)c2)cc1OC", "note": "(configuration not stated)", "values": [{"measurement": "EC50", "result": 16.6, "unit": "µM"}]}, {"smiles": "CCN(CC)c1ccc(C2Nc3ccccc3NC3=C2C(=O)CC(c2ccccc2)C3)cc1", "note": "(configuration not stated)", "values": [{"measurement": "EC50", "result": 7.15, "unit": "µM"}]}, {"smiles": "COc1ccc(C2CC(=O)C3=C(C2)Nc2ccccc2NC3c2ccc(O)cc2)cc1", "note": "(configuration not stated)", "values": [{"measurement": "EC50", "result": "> 100 µM (inactive)"}]}, {"smiles": "COc1ccc(C2CC(=O)C3=C(C2)Nc2ccccc2NC3c2ccccc2[N+](=O)[O-])cc1OC", "note": "(configuration not stated)", "values": [{"measurement": "EC50", "result": 36.8, "unit": "µM"}]}, {"smiles": "CCOc1cccc(C2Nc3ccccc3NC3=C2C(=O)CC(c2ccc(OC)cc2)C3)c1", "note": "(configuration not stated)", "values": [{"measurement": "EC50", "result": 20.4, "unit": "µM"}]}, {"smiles": "CCN(CC)c1ccc(C2Nc3ccccc3NC3=C2C(=O)CC(c2ccc(OC)cc2)C3)cc1", "note": "(configuration not stated)", "values": [{"measurement": "EC50", "result": 8.53, "unit": "µM"}]}, {"smiles": "COc1ccc(C2CC(=O)C3=C(C2)Nc2ccccc2NC3c2ccc(F)c(F)c2)cc1", "note": "(configuration not stated)", "values": [{"measurement": "EC50", "result": 20.9, "unit": "µM"}]}, {"smiles": "O=C1CC(c2ccccc2)CC2=C1C(c1cccc3ccccc13)Nc1ccccc1N2", "note": "(configuration not stated)", "values": [{"measurement": "EC50", "result": 16, "unit": "µM"}]}, {"smiles": "CSc1ccc(C2Nc3ccccc3NC3=C2C(=O)CC(c2ccccc2)C3)cc1", "note": "(configuration not stated)", "values": [{"measurement": "EC50", "result": 13.9, "unit": "µM"}]}, {"smiles": "O=C1CC(c2ccccc2)CC2=C1C(c1c(F)cccc1Cl)Nc1ccccc1N2", "note": "(configuration not stated)", "values": [{"measurement": "EC50", "result": 18.1, "unit": "µM"}]}, {"smiles": "COc1ccc(C2CC(=O)C3=C(C2)Nc2ccccc2NC3c2c(Cl)cccc2Cl)cc1", "note": "(configuration not stated)", "values": [{"measurement": "EC50", "result": 24.4, "unit": "µM"}]}, {"smiles": "COc1ccc(C2CC(=O)C3=C(C2)Nc2ccccc2NC3c2cc(C)ccc2C)cc1", "note": "(configuration not stated)", "values": [{"measurement": "EC50", "result": 17.2, "unit": "µM"}]}, {"smiles": "CCCOc1ccc(C2Nc3ccccc3NC3=C2C(=O)CC(c2ccc(OC)c(OC)c2)C3)cc1", "note": "(configuration not stated)", "values": [{"measurement": "EC50", "result": 16.2, "unit": "µM"}]}, {"smiles": "COc1ccc(C2CC(=O)C3=C(C2)Nc2ccccc2NC3c2ccncc2)cc1OC", "note": "(configuration not stated)", "values": [{"measurement": "EC50", "result": "> 100 µM (inactive)"}]}, {"smiles": "COc1ccc(C2CC(=O)C3=C(C2)Nc2ccccc2NC3c2ccccc2C)cc1OC", "note": "(configuration not stated)", "values": [{"measurement": "EC50", "result": 35.8, "unit": "µM"}]}, {"smiles": "Cc1ccc(C2Nc3ccccc3NC3=C2C(=O)CC(c2ccc(Cl)cc2)C3)cc1", "note": "(configuration not stated)", "values": [{"measurement": "EC50", "result": 9.76, "unit": "µM"}]}, {"smiles": "COc1ccc(C2CC(=O)C3=C(C2)Nc2ccccc2NC3c2cccc(Oc3ccccc3)c2)cc1OC", "note": "(configuration not stated)", "values": [{"measurement": "EC50", "result": 8.07, "unit": "µM"}]}, {"smiles": "COc1ccc(C2CC(=O)C3=C(C2)Nc2ccccc2NC3c2ccccc2OC(C)C)cc1", "note": "(configuration not stated)", "values": [{"measurement": "EC50", "result": 17.7, "unit": "µM"}]}, {"smiles": "CCOc1cc(C2Nc3ccccc3NC3=C2C(=O)CC(c2ccc(OC)cc2)C3)cc(Br)c1O", "note": "(configuration not stated)", "values": [{"measurement": "EC50", "result": 18, "unit": "µM"}]}, {"smiles": "COc1ccc(C2CC(=O)C3=C(C2)Nc2ccccc2NC3c2ccc3ccccc3c2)cc1", "note": "(configuration not stated)", "values": [{"measurement": "EC50", "result": 11.5, "unit": "µM"}]}, {"smiles": "COc1ccc(C2CC(=O)C3=C(C2)Nc2ccccc2NC3c2cccc(Cl)c2)cc1", "note": "(configuration not stated)", "values": [{"measurement": "EC50", "result": 20.7, "unit": "µM"}]}, {"smiles": "COc1ccc(C2CC(=O)C3=C(C2)Nc2ccccc2NC3c2cccc(O)c2)cc1", "note": "(configuration not stated)", "values": [{"measurement": "EC50", "result": "> 100 µM (inactive)"}]}, {"smiles": "COc1ccc(C2CC(=O)C3=C(C2)Nc2ccccc2NC3c2ccccc2Cl)cc1OC", "note": "(configuration not stated)", "values": [{"measurement": "EC50", "result": 40.3, "unit": "µM"}]}, {"smiles": "COc1ccc(C2CC(=O)C3=C(C2)Nc2ccccc2NC3c2cccc(Br)c2)cc1OC", "note": "(configuration not stated)", "values": [{"measurement": "EC50", "result": 16.9, "unit": "µM"}]}, {"smiles": "COc1ccc(C2CC(=O)C3=C(C2)Nc2ccccc2NC3c2ccc(-c3ccccc3)cc2)cc1OC", "note": "(configuration not stated)", "values": [{"measurement": "EC50", "result": 14.7, "unit": "µM"}]}, {"smiles": "O=C1CC(c2ccccc2)CC2=C1C(c1ccc(Cl)cc1Cl)Nc1ccccc1N2", "note": "(configuration not stated)", "values": [{"measurement": "EC50", "result": "> 100 µM (inactive)"}]}, {"smiles": "CCCCOc1ccccc1C1Nc2ccccc2NC2=C1C(=O)CC(c1ccccc1)C2", "note": "(configuration not stated)", "values": [{"measurement": "EC50", "result": 13.2, "unit": "µM"}]}, {"smiles": "COc1ccc(C2CC(=O)C3=C(C2)Nc2ccccc2NC3c2ccc(C(C)C)cc2)cc1", "note": "(configuration not stated)", "values": [{"measurement": "EC50", "result": 8.22, "unit": "µM"}]}, {"smiles": "COc1ccc(C2Nc3ccccc3NC3=C2C(=O)CC(c2ccc(Cl)cc2)C3)cc1", "note": "(configuration not stated)", "values": [{"measurement": "EC50", "result": 11.1, "unit": "µM"}]}, {"smiles": "COc1ccc(C2CC(=O)C3=C(C2)Nc2ccccc2NC3c2ccccc2C(F)(F)F)cc1OC", "note": "(configuration not stated)", "values": [{"measurement": "EC50", "result": 17.4, "unit": "µM"}]}, {"smiles": "COc1ccc(C2CC(=O)C3=C(C2)Nc2ccccc2NC3c2c(F)cccc2F)cc1", "note": "(configuration not stated)", "values": [{"measurement": "EC50", "result": 33, "unit": "µM"}]}, {"smiles": "CCOc1cc(C2Nc3ccccc3NC3=C2C(=O)CC(c2ccc(OC)cc2)C3)cc(Cl)c1O", "note": "(configuration not stated)", "values": [{"measurement": "EC50", "result": 23.5, "unit": "µM"}]}, {"smiles": "COc1ccc(C2CC(=O)C3=C(C2)Nc2ccccc2NC3c2c(F)cccc2Cl)cc1", "note": "(configuration not stated)", "values": [{"measurement": "EC50", "result": 13.5, "unit": "µM"}]}, {"smiles": "Cc1ccc(C2Nc3ccccc3NC3=C2C(=O)CC(c2ccccc2)C3)cc1", "note": "(configuration not stated)", "values": [{"measurement": "EC50", "result": 19.2, "unit": "µM"}]}, {"smiles": "COc1ccc(C2CC(=O)C3=C(C2)Nc2ccccc2NC3c2ccc(NC(C)=O)cc2)cc1", "note": "(configuration not stated)", "values": [{"measurement": "EC50", "result": "> 100 µM (inactive)"}]}, {"smiles": "CC(C)Oc1ccccc1C1Nc2ccccc2NC2=C1C(=O)CC(c1ccc(Cl)cc1)C2", "note": "(configuration not stated)", "values": [{"measurement": "EC50", "result": 6.03, "unit": "µM"}]}]}
